Measurements reported in ChEMBL document CHEMBL4118288, “Antiplasmodial activity of hydroxyethylamine analogs: Synthesis, biological activity and structure activity relationship of plasmepsin inhibitors” (Bioorg Med Chem, 2018).
pIC50, pKi: −log10 of the molar value.

Columns and labels:
[1] = test system: Plasmodium falciparum; test: Antiplasmodial activity against chloroquine-susceptible blood forms of Plasmodium falciparum 3D7 infected in human erythrocytes measured after 48 hrs by SYBR green1 staining based fluorescence assay; assay type: functional, organism-based; conditions: 3D7, 48 h
[2] = molecular target: Plasmepsin 4 (Plasmodium falciparum, UniProt Q17SB2); test: (§1) Inhibition of Plasmodium falciparum Plm4 using synthetic substrate pretreated for 5 mins followed by substrate addition measured immediately by spectrophotometric method
Chain of Plasmepsin 4 (Q17SB2 whole entry): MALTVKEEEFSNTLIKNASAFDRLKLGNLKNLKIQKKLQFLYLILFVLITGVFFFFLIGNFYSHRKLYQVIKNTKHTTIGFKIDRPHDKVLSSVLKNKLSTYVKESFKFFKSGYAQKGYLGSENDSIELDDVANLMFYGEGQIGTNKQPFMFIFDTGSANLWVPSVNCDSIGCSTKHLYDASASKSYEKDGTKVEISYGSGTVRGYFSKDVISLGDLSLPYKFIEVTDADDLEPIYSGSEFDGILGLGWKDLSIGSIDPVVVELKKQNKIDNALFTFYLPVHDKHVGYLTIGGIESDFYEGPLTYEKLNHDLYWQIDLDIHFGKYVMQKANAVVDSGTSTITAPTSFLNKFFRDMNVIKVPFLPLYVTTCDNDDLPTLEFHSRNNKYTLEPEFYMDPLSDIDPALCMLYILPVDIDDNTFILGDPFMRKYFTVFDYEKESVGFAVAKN

[3] = molecular target: Plasmepsin 4 (Plasmodium falciparum) (UniProt Q17SB2); test: as §1
Chain of Plasmepsin 4 (Plasmodium falciparum) (Q17SB2 1-448): as the sequence (Q17SB2 whole entry) above

[4] = molecular target: Plasmepsin II (Plasmodium falciparum) (UniProt P46925); test: Inhibition of Plasmodium falciparum Plm2 at 10 uM using synthetic substrate pretreated for 5 mins followed by substrate addition measured immediately by spectrophotometric method relative to control
Chain of Plasmepsin II (Plasmodium falciparum) (P46925 125-453 limits assumed): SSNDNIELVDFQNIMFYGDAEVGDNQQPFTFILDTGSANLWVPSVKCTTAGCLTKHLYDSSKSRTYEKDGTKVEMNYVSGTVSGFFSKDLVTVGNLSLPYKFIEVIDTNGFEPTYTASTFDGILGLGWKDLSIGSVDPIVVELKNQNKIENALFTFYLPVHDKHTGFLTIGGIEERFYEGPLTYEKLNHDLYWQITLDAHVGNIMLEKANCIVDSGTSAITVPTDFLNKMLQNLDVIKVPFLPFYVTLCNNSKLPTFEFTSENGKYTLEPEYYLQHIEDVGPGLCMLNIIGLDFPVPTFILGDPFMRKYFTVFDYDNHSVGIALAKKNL

[5] = molecular target: Plasmepsin II (Plasmodium falciparum) (UniProt P46925); test: (§2) Inhibition of Plasmodium falciparum Plm2 using synthetic substrate pretreated for 5 mins followed by substrate addition measured immediately by spectrophotometric method
[6] = molecular target: Plasmepsin 4 (Plasmodium falciparum) (UniProt Q17SB2); test: Inhibition of Plasmodium falciparum Plm4 at 10 uM using synthetic substrate pretreated for 5 mins followed by substrate addition measured immediately by spectrophotometric method relative to control
[7] = test system: Vero; test: Cytotoxicity against African green monkey Vero cells after 48 hrs by MTT assay; assay type: cell-based; conditions: Chlorocebus sabaeus
[8] = Therapeutic index, ratio of IC50 for African green monkey Vero cells to IC50 for chloroquine-susceptible blood forms of Plasmodium falciparum 3D7 infected in human erythrocytes; assay type: toxicity, cell-based; conditions: read-out: Ratio IC50
[9] = test system: HepG2; test: Cytotoxicity against human HepG2 cells after 48 hrs by MTT assay; assay type: cell-based; conditions: HepG2, 48 h
[10] = Therapeutic index, ratio of IC50 for human HepG2 cells to IC50 for chloroquine-susceptible blood forms of Plasmodium falciparum 3D7 infected in human erythrocytes; assay type: toxicity, cell-based; conditions: read-out: Ratio IC50
[11] = molecular target: Plasmepsin II (Plasmodium falciparum, UniProt P46925); test: as §2
Chain of Plasmepsin II (P46925 whole entry): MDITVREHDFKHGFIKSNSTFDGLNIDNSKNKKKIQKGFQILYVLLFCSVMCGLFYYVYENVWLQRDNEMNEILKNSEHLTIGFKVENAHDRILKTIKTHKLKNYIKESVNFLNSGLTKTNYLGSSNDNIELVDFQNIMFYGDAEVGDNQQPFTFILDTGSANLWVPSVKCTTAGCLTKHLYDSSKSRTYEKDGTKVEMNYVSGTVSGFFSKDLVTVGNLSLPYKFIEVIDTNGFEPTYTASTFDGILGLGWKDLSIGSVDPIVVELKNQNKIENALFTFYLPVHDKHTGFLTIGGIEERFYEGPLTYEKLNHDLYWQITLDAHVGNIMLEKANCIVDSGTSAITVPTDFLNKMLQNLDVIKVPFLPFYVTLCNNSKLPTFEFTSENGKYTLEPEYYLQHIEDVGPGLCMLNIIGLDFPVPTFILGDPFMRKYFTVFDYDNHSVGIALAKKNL

SMILES: C[C@@H]1CC[C@H]2[C@@H](C)C(=O)O[C@@H]3O[C@@]4(C)CC[C@@H]1[C@]32OO4 [ARTEMISININ]
- pIC50 [1]: 7.13

SMILES: O=C(CN1C(=O)c2ccccc2C1=O)NC(Cc1ccccc1)C(O)CN1CCN(C[C@@H](O)[C@H](Cc2ccccc2)NC(=O)CN2C(=O)c3ccccc3C2=O)CC1 (single isomer, unassigned)
- pIC50 [1]: 4.69

SMILES: Cc1ccc2c(c1)C(=O)N(CC(=O)N[C@@H](Cc1ccccc1)[C@H](O)CN1CCN(C[C@H](O)[C@@H](Cc3ccccc3)NC(=O)CN3C(=O)c4ccc(C)cc4C3=O)CC1)C2=O
- pKi [2]: 5.48
- inhibition [3]: Dose-dependent effect
- inhibition [4]: > 50%
- inhibition [5]: Dose-dependent effect
- inhibition [6]: > 50%
- pIC50 [1]: 4.97

SMILES: Cc1ccc2c(c1)C(=O)N([C@@H](C)C(=O)NC(Cc1ccccc1)C(O)CN1CCN(C[C@@H](O)[C@H](Cc3ccccc3)NC(=O)[C@H](C)N3C(=O)c4ccc(C)cc4C3=O)CC1)C2=O (single isomer, unassigned)
- pIC50 [1]: 4.72

SMILES: C[C@H](N)C(=O)NC(Cc1ccccc1)C(O)CN1CCN(C[C@@H](O)[C@H](Cc2ccccc2)NC(=O)[C@H](C)N)CC1 (single isomer, unassigned)
- pIC50 [1]: 5.16

SMILES: C[C@@H](C(=O)NC(Cc1ccccc1)C(O)CN1CCN(C[C@@H](O)[C@H](Cc2ccccc2)NC(=O)[C@H](C)N2C(=O)c3ccccc3C2=O)CC1)N1C(=O)c2ccccc2C1=O (single isomer, unassigned)
- pIC50 [1]: 5.12

SMILES: N[C@@H](Cc1ccccc1)[C@H](O)CN1CCN(C[C@@H](O)[C@@H](N)Cc2ccccc2)CC1
- pIC50 [1]: 5.46

SMILES: CC[C@H](C)[C@H](N)C(=O)N[C@@H](Cc1ccccc1)[C@H](O)CN1CCN(C[C@@H](O)[C@H](Cc2ccccc2)NC(=O)[C@@H](N)[C@@H](C)CC)CC1
- pIC50 [7]: < 3.81
- selectivity ratio [8]: > 10
- pIC50 [9]: 3.90
- selectivity ratio [10]: > 10
- pIC50 [1]: 5.87

SMILES: CC[C@H](C)[C@@H](C(=O)N[C@@H](Cc1ccccc1)[C@H](O)CN1CCN(C[C@@H](O)[C@H](Cc2ccccc2)NC(=O)[C@H]([C@@H](C)CC)N2C(=O)c3ccc(C)cc3C2=O)CC1)N1C(=O)c2ccc(C)cc2C1=O
- pKi [2]: 6.08
- inhibition [3]: Dose-dependent effect
- inhibition [4]: > 50%
- inhibition [5]: Dose-dependent effect
- inhibition [6]: > 50%
- pIC50 [1]: 5.51

SMILES: CC[C@H](C)[C@H](NC(=O)OC(C)(C)C)C(=O)N[C@@H](Cc1ccccc1)[C@H](O)CN1CCN(C[C@@H](O)[C@H](Cc2ccccc2)NC(=O)[C@@H](NC(=O)OC(C)(C)C)[C@@H](C)CC)CC1
- pIC50 [1]: 5.74

SMILES: C[C@H](NC(=O)OC(C)(C)C)C(=O)N[C@@H](Cc1ccccc1)[C@H](O)CN1CCN(C[C@H](O)[C@@H](Cc2ccccc2)NC(=O)[C@H](C)NC(=O)OC(C)(C)C)CC1
- pIC50 [1]: 5.08

SMILES: CC(C)[C@H](NC(=O)OC(C)(C)C)C(=O)N[C@@H](Cc1ccccc1)[C@H](O)CN1CCN(C[C@H](O)[C@@H](Cc2ccccc2)NC(=O)[C@@H](NC(=O)OC(C)(C)C)C(C)C)CC1
- pIC50 [1]: 5.36

SMILES: CC(C)(C)OC(=O)NCC(=O)NC(Cc1ccccc1)C(O)CN1CCN(C[C@@H](O)[C@H](Cc2ccccc2)NC(=O)CNC(=O)OC(C)(C)C)CC1 (single isomer, unassigned)
- pIC50 [1]: 5.07

SMILES: Cc1ccc2c(c1)C(=O)N([C@H](C(=O)NC(Cc1ccccc1)C(O)CN1CCN(C[C@@H](O)[C@H](Cc3ccccc3)NC(=O)[C@H](C(C)C)N3C(=O)c4ccc(C)cc4C3=O)CC1)C(C)C)C2=O (single isomer, unassigned)
- pIC50 [1]: 5.65

SMILES: CC(C)[C@H](N)C(=O)NC(Cc1ccccc1)C(O)CN1CCN(C[C@@H](O)[C@H](Cc2ccccc2)NC(=O)[C@@H](N)C(C)C)CC1 (single isomer, unassigned)
- pIC50 [1]: 5.57

SMILES: Cc1ccc2c(c1)C(=O)N([C@@H](CC(C)C)C(=O)NC(Cc1ccccc1)C(O)CN1CCN(C[C@@H](O)[C@H](Cc3ccccc3)NC(=O)[C@H](CC(C)C)N3C(=O)c4ccc(C)cc4C3=O)CC1)C2=O (single isomer, unassigned)
- pKi [2]: 5.70
- inhibition [3]: Dose-dependent effect
- pIC50 [7]: 4.22
- inhibition [4]: > 50%
- selectivity ratio [8]: > 10
- inhibition [5]: Dose-dependent effect
- pKi [11]: 5.72
- pIC50 [9]: 4.57
- inhibition [6]: > 50%
- selectivity ratio [10]: > 10
- pIC50 [1]: 5.64
